Here are results for one molecule from patent US9120784B2, “1,3,4-oxadiazoles-2-thio azetidine derivatives as sphingosine-1 phosphate receptors modulators” (Allergan, Inc., priority 2012, dated 2015).

The assay addresses T1, human S1P1 receptor (Homo sapiens, UniProt P21453).
T1 construct: expressed in transfected cells; membranes used
Kind of assay: GTP γ35S binding assay for S1P1 activity. The class given is biochemical. The settings on record: membranes of cells stably expressing the S1P1 receptor, test compound 0.08 to 5,000 nM, read-out: S1P1 EC50 (nM) % inhibition. The method, then:
Compounds were synthesized and tested for S1P1 activity using the GTP γ^35S binding assay. These compounds may be assessed for their ability to activate or block activation of the human S1P1 receptor in cells stably expressing the S1P1 receptor.
GTP γ^35S binding was measured in the medium containing (mM) HEPES 25, pH 7.4, MgCl2 10, NaCl 100, dithiothreitol 0.5, digitonin 0.003%, 0.2 nM GTP γ^35S, and 5 μg membrane protein in a volume of 150 μl. Test compounds were included in the concentration range from 0.08 to 5,000 nM unless indicated otherwise. Membranes were incubated with 100 μM 5′-adenylylimidodiphosphate for 30 min, and subsequently with 10 μM GDP for 10 min on ice. Drug, solutions and membrane were mixed, and then reactions were initiated by adding GTP γ^35S and continued for 30 min at 25° C. Reaction mixtures were filtered over Whatman CF/B filters under vacuum, and washed three times with 3 mL of ice-cold buffer (HEPES 25, pH7.4, MgCl2 10 and NaCl 100). Filters were dried and mixed with scintillant, and counted for ^35S activity using […]. Agonist-induced GTP γ^35S binding was obtained by subtracting that in the absence of agonist. Binding data were analyzed using a non-linear regression method. In case of antagonist assay, the reaction mixture contained 10 nM […] in the presence of test antagonist at concentrations ranging from 0.08 to 5000 nM.

T1 sequence (P21453 whole entry): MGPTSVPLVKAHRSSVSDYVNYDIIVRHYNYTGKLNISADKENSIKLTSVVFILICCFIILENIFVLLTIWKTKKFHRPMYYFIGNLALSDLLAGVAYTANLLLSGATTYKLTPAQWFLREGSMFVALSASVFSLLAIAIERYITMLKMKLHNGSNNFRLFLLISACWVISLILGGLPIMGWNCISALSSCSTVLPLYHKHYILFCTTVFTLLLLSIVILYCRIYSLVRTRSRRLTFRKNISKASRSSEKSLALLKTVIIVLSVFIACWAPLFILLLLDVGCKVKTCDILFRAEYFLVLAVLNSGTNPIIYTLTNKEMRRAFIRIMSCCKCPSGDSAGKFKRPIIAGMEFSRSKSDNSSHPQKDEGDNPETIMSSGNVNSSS

Regarding `Cc1ccc(-c2nnc(SC(C)c3ccc(CN4CC(C(=O)O)C4)cc3)o2)cc1C` (stereo not shown) [Compound 1, 1-[4-(1-{[5-(3,4-Dimethylphenyl)-1,3,4-oxadiazol-2-yl]thio}ethyl)benzyl]azetidine-3-carboxylic acid], the EC50 amounted to 22.9 nM.
